Values quoted from earlier work as cited in patent publication US9540691B2, “Assays and methods for selecting a treatment regimen for a subject with depression” (THE GENERAL HOSPITAL CORPORATION, priority 2011, dated 2017).
Like-named read-outs stand apart in the source and are kept apart here.

Tested on: adults with DSM-IV MDD, partial or nonresponse to an SSRI
Conditions: cited from earlier work

## Nc1nc(=O)c2c([nH]1)NCC(CNc1ccc(C(=O)N[C@@H](CCC(=O)O)C(=O)O)cc1)N2C=O (mixture of isomers) [Folinic acid]
16 completers, decreased from 19.1+/−3.9, p<0.01
  HAM-D-17 score after treatment: 12.8+/−7.0
ITT sample
  remission (HAM-D-17 no greater than 7): 18%
completers
  remission (HAM-D-17 no greater than 7): 19%
  response (at least 50% reduction in HAM-D-17): 31%
Folinic acid 15-30 mg/day added to SSRIs, 8 weeks, rose from 28+/−19, p<0.001
  Folate levels after treatment: 301 ± 203 ng/mL
intent-to-treat (ITT) sample
  response (at least 50% reduction in HAM-D-17): 27%
